From patent US7795261B2, “Substituted 1-piperidin-4-yl-4-pyrrolidin-3-yl-piperazine derivatives and their use as neurokinin antagonists” (Janssen Pharmaceutica NV, priority 2002, dated 2010)

Key:
Format in all cases: cell-based
[1] = molecular target: T1, NK3 (Homo sapiens, UniProt P29371); test: Signal transduction (ST), intracellular Ca++ (FLIPR), NK3; details: read-out: pIC50 NK3 (converted)
T1 sequence (P29371 1-465): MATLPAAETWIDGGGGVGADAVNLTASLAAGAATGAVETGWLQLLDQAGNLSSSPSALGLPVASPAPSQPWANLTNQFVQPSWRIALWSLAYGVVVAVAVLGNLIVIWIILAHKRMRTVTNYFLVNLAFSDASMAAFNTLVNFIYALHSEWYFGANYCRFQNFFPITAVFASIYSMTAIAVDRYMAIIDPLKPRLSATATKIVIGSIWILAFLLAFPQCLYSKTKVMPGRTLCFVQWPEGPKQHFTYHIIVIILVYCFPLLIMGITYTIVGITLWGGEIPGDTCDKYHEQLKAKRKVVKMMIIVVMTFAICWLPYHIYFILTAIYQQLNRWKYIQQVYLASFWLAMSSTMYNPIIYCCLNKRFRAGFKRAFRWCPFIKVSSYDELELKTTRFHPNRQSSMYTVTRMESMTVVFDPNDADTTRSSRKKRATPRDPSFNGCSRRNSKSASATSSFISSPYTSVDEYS

[2] = molecular target: T2, NK2 (Homo sapiens, UniProt P21452); test: Signal transduction (ST), intracellular Ca++ (FLIPR), NK2; details: read-out: pIC50 NK2 (converted)
T2 sequence (P21452 1-398): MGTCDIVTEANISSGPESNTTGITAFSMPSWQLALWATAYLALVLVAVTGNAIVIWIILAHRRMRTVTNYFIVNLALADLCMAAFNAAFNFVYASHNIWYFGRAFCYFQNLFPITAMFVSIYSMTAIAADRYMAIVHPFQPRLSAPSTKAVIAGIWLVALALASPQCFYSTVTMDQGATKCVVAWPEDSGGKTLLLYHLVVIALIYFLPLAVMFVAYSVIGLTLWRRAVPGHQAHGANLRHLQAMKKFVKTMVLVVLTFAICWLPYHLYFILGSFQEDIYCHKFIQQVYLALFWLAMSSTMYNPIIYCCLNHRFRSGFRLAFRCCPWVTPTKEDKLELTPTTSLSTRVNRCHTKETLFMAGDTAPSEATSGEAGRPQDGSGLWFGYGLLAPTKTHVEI

[3] = molecular target: NK1 (Homo sapiens, UniProt P25103); test: Signal transduction (ST), intracellular Ca++ (FLIPR), NK1 antagonistic activity; details: read-out: pIC50 NK1 (converted)
In short: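 Confluent cells loaded with 2 μM Fluo3 (1 h, 37 °C, probenecid), preincubated 20 min at RT with antagonist concentration range, then agonist added. Peak Ca++ transient read by FLIPR in Krebs buffer pH 7.4; IC50 by non-linear regression.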

Sequence of NK1 (P25103 whole entry): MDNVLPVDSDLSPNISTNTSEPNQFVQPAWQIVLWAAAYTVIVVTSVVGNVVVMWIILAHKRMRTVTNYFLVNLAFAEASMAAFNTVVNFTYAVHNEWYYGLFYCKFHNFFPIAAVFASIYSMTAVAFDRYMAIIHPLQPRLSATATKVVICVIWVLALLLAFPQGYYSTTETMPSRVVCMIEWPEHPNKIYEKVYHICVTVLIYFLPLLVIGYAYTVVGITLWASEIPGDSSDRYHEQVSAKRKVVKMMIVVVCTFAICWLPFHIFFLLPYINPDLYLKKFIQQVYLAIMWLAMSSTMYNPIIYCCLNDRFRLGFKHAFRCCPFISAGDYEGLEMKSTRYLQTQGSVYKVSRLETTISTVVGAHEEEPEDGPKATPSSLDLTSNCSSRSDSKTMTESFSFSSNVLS

SMILES | IC50 [1] | IC50 [2] | IC50 [3]
O=C(Cc1ccco1)N1CCC(N2CCN([C@H]3CCN(C(=O)c4cc(C(F)(F)F)cc(C(F)(F)F)c4)[C@H](Cc4ccccc4)C3)CC2)C1 (stereo partly drawn) [Compound 66] | 398 nM | 5010 nM | 25.1 nM
O=C(C(NCc1ccccc1)c1ccccc1)N1CCC(N2CCN([C@H]3CCN(C(=O)c4cc(C(F)(F)F)cc(C(F)(F)F)c4)[C@H](Cc4ccccc4)C3)CC2)C1 (stereo partly drawn) [Compound 107] | 631 nM | 3160 nM | 100 nM
CC(C)(C)C(=O)N1CCC(N2CCN(C3CCN(C(=O)c4cc(C(F)(F)F)cc(C(F)(F)F)c4)C(Cc4ccccc4)C3)CC2)C1 (stereo not drawn) [Compound 167] | 631 nM | 2000 nM | 7.94 nM

Next, values leading:

IC50 [1] | IC50 [2] | IC50 [3] | SMILES
1000 nM | 2510 nM | 20 nM | CC(C(=O)N1CCC(N2CCN(C3CCN(C(=O)c4cc(C(F)(F)F)cc(C(F)(F)F)c4)C(Cc4ccc(Cl)c(Cl)c4)C3)CC2)C1)c1ccccc1 (stereo not drawn) [Compound 176]
2510 nM | 3980 nM | 25.1 nM | N#Cc1ccc(NC(=O)N2CCC(N3CCN([C@H]4CCN(C(=O)c5cc(C(F)(F)F)cc(C(F)(F)F)c5)[C@H](Cc5ccccc5)C4)CC3)C2)cc1 (stereo partly drawn) [Compound 283]
